Consider one compound from PMC7333345, “nanoDSF: In vitro Label-Free Method to Monitor Picornavirus Uncoating and Test Compounds Affecting Particle Stability” (Frontiers in Microbiology, 2020).

In this assay the target is T1, RV-A2 (native virion capsid; VP1 hydrophobic pocket) (rhinovirus A2, UniProt P04936).
T1 construct: native purified virion (propagated virus, monolithic chromatography); 60 copies each of VP1-VP4 cut from the genome polyprotein; VP4 68 aa; with Capsid protein VP2; Capsid protein VP3; Capsid protein VP4
Briefly: nanoDSF (intrinsic tryptophan fluorescence, Em350/Em330 ratio). Format: binding. The note with it: 1 mM pleconaril, 2% DMSO, PBS, 1 °C/min, RV-A2 0.5 mg/ml (1 mg/ml in Figure 3 legend), whole virion, against DMSO control. In general terms: In DSF a fluorescence change marks the thermal transition of the protein.

T1 sequence (P04936 2-850): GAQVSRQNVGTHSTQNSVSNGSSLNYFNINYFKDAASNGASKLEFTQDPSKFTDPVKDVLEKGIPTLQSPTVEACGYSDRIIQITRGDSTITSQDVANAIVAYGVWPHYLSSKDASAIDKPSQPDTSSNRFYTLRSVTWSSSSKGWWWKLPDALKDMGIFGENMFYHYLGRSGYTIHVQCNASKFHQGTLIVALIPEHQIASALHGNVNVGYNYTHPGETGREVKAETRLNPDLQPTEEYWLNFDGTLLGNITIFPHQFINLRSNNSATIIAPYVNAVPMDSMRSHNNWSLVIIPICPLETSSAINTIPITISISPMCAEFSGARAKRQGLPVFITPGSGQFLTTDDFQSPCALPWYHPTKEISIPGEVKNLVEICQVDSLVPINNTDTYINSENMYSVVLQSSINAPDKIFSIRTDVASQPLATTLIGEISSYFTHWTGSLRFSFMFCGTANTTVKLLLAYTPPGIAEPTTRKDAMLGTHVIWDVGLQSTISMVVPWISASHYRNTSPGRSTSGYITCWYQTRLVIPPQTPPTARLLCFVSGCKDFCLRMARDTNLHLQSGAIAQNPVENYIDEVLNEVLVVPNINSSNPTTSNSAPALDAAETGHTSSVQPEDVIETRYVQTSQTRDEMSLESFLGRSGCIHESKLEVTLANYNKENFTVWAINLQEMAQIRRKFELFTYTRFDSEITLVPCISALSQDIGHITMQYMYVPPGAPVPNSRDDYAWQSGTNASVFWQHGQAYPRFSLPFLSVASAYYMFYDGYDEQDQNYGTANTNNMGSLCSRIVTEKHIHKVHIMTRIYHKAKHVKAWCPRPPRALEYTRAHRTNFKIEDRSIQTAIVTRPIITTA

Take `Cc1cc(CCCOc2c(C)cc(-c3noc(C(F)(F)F)n3)cc2C)on1` [pleconaril]: the “shift of TA (50% N to A particle conversion)” value came out at 5 °C.
